Consider four compounds from patent US6083920A, “Compositions for modulating intracellular inositol trisphosphate concentration” (priority 1996, dated 2000).

For series [1], the system named is InsP3 signalling in primary chick cortical neurons. The series can be described thus: Phosphoinositide hydrolysis assay (InsP3 signalling) in cultured primary cortical neurons. It counts as cell-based. To be noted: for inhibitory effect on InsP3 enhancement caused by sphingosine or metabotropic glutamate receptor agonists: cortical neurons. Here is the method: Primary cultures of neurons were prepared from the telencephalon of white Leghorn chick embryos on the eighth day of their development (Rosenberg et al., J.Biol. Chem. 267:10601-10612, 1992). The neurons were seeded in 24-well plastic tissue culture plates that had been coated with L-polylysine. The density of the neurons was 10^5 cells per well, and they were cultured in Dulbecco's modified Eagle's medium/Ham's high glucose F-12 medium (1:1, vol:vol) containing 500 ng/L sodium selenite, 500 μg/L transferrin, and 165 pmole/L EGF. The cultures were maintained at 37° C. under 5% CO2 in air for 4 days, by which time the cells had differentiated into neurite-bearing cortical granulocytic neurons. These cultures of mature embryonic neurons were used for phosphoinositide hydrolysis assays (as described in Example 2).
Receptor-stimulated and basal unstimulated hydrolysis of phosphoinositides was measured by the following procedure. In order to label the cellular phosphoinositides metabolically, the primary cultures of chick cortical neurons (described in Example 1) were incubated overnight with 0.5 ml Dulbecco's modified Eagle's medium containing 1 μCi [^3 H]myo-inositol per well. The cells were then washed twice with 1 ml Dulbecco's phosphate-buffered saline (PBS) and 0.5 ml of PBS containing 4.5 g/L glucose was added. Sphingosine, psychosine, lysosulphatide, or lysosphingomyelin, prepared as the hydrochloride salt dissolved in water, were then added to produce the desired extracellular concentration in specific wells, […] The cells were then washed twice with 1 ml PBS, and pre-incubated for 15 minutes at 37° C. with 0.5 ml PBS containing 10 mM LiCl and the compound to be tested was added. […] The tubes were vortexed thoroughly, then centrifuged at 500×g for 5 minutes to separate the aqueous and chloroform phases. For each sample, a 1.5-ml aliquot of the upper (aqueous) phase was applied to a small column containing BioRad AG1X8 resin (formate form). Free [^3 H]inositol and [^3 H]glycerophosphoinositol were washed through the column with 5 ml of a solution containing 5 mM sodium borate and 60 mM sodium formate. The total phosphorylated [^3 H] inositol fraction was eluted from the column for radiometric scintillation spectrometry analysis with 3 ml 1.0 M ammonium formate/0.1 M formic acid;
In addition, a 0.5 ml aliquot of the lower (chloroform) phase of each sample was analyzed radiometrically by scintillation spectrometry in order to determine the quantity of lipid-bound [^3 H]myo-inositol. Estimation of phosphoinositide hydrolysis by phospholipase C is based upon the quantity of [^3 H]inositol phosphates produced, and is expressed as the percentage of the latter relative to total free and componential [^3 H]inositol (dpm ammonium formate+dpm chloroform fractions).
Cultured primary chick cortical neurons that were prelabeled with [^3 H]myo-inositol were examined for enhanced InsP3 signalling in response to various agonists including glutamate, aspartate, and the metabotropic […] receptor agonists ibotenate and quisqualate.

The next series deals with hippocampal neurons. The series can be described thus: Histological analysis of brain 7 days after ICV infusion (cresyl violet). It counts as in vivo, male F344 rats. To be noted: for HISTOLOGICAL CHANGES: rat. Here is the method: Before administering various compounds, the animals were anesthetized with sodium pentobarbital (50 mg/kg, i.p.) and positioned in a sterotaxic instrument. A 26 gauge cannula was inserted into the cerebral ventricle at the following co-ordinates: 1.0 mm posterior to bregma, 1.5 mm lateral to the midline, and 4.0 mm below the dorsal surface of the neocortex. Cannulas were capped and fixed in place with dental cement. One week after cannulation, 10 μl of each of the treatment drugs was infused, ICV (i.e. into the ventricals of the brain), via a micropump at a rate of 10 μl/min. For this procedure, the animals were lightly restrained and unanesthetized. Following administration of the compound, the infusion cannula remained in position for one minute, after which the permanent in situ cannula was capped.
Seven days after the compounds were administered, animals were sacrificed by transcardial perfusion with neutralized, buffered 10% formalin-saline. Their brains were removed, post-fixed overnight in 10% formalin-saline, and sectioned along the coronal plane (into 50 μm thick sections) on a freezing microtome. The sections were stained with cresyl violet to determine the extent of cellular destruction. […]
Given that high concentrations of metabotropic receptors are located in the hippocampus, and that the hippocampus is particularly vulnerable to the effects of a variety of insults including ischemia and hypoxia, this region was examined for evidence of neuronal degeneration due to glutamate excitotoxicity.

Another series has as its system astrocytes. Conditions: cited from earlier work.
The test system of series [2] is calcium ion signalling in cortical neurons. Briefly: Metabotropic receptor function: calcium ion signalling (fura 2) in intact cortical neurons. It is filed as cell-based, chick. To be noted: neurons loaded to 150±20 pmoles per mg protein; 10 μM glutamate agonist 30 minutes. Here is the method:
Metabotropic receptor function was examined in intact neurons by assaying lysosphingolipid modulation of calcium ion signalling. Approximately 1×10^6 cortical neurons were cultured on rectangular L-polylysine-coated coverslips and loaded with lysocerebroside or lysosphingomyelin to a level of 150±20 pmoles per mg protein. The neurons were returned to complete Ham's high glucose medium/DMEM (1:1, vol:vol) and infiltrated with 5 μM fura 2/AM (Molecular Probes, Eugene, Oreg.). Fura 2 is a calcium chelator whose fluorescence absorbance shifts to shorter wavelength upon calcium ion binding is measurable in intact cells. A change in intraneuronal calcium ion concentration was monitored as a change in the fluorescence spectrum.
The neurons were exposed to 10 μM glutamate agonist (for example, ibotenate) for 30 minutes at 37° C. The coverslips were then transferred to quartz cuvettes in medium containing 250 μM sulfinpyrazone to prevent fura 2/AM diffusion. Fluorescence ratios were recorded in a Perkin-Elmer LS-5 Fluorescence Spectrometer thermostatted at 37° C. at excitation wavelengths of 340 and 380 nm, a nd emission measurement at 500 nm. Calcium ion signalling in agonist-stimulated neurons was 3.0±0.2 arbitrary units for ibotenate-exposed neurons.

The structures appear in SMILES notation. “Also recorded” adds a separate entry of the source.

On to `N[C@@H](Cn1oc(=O)[nH]c1=O)C(=O)O` [Quisqualate, quisqualate], for which the “Ins-P-n, modulator Lsm:Sph” value in series [1] (20 μM Lysosphingomyelin + 20 μM Sphingosine, then 100 μM agonist 20 min, normalized to control = 1.00) stood at 2.25 ± 0.15. Moreover, the “Ins-P-n, modulator Psy:Sph” value in series [1] (20 μM Psychosine + 20 μM Sphingosine, then 100 μM agonist 20 min, normalized to control = 1.00) came out at 3.30 ± 0.25. Also, the fold induction at 100 µM in series [1] (Gallus gallus, Cortical neurone, 20 min, read-out: Ins-P-n (agonist alone)) worked out at 3 ± 0.05. The “HISTOLOGICAL CHANGES” value is recorded as “none observed” in the series on hippocampal neurons (Quisqualate 100 nmoles ICV); “none observed” in the series on hippocampal neurons (Quisqualate 150 nmoles ICV); “loss of CA1” in the series with hippocampal neurons (Quisqualate 225 nmoles ICV, seven days after application); “severe loss of neurons in the hippocampus; also recorded: considerable loss of CA1 pyramidal neurons in the hippocampus” with hippocampal neurons (Quisqualate 225 nmoles ICV, seven days after application, listed as quisqualate); “severe loss of neurons in the hippocampus” in the series on hippocampal neurons (Quisqualate 250 nmoles ICV, seven days after application, listed as quisqualate); “loss of neurons” in the series with hippocampal neurons (Quisqualate 500 μmoles ICV).
For the compound `CCCCCCCCCCCCC/C=C/[C@@H](O)[C@@H](N)CO` [sphingosine], in the series with astrocytes, the “InsP3 production in astrocytes” value is listed as “enhanced”. Besides, in series [1], the “basal, unstimulated InsP3 level in cortical neurons” value was “tonically enhanced”.
Consider `CCCCCCCCCCCCC/C=C/[C@@H](O)[C@@H](N)COP(=O)([O-])OCC[N+](C)(C)C` [lysosphingomyelin, sphingosyl phosphoryicholine], for which the “inhibitory effect on InsP3 enhancement caused by sphingosine or metabotropic glutamate receptor agonists” value in series [1] is “blocked this enhancement”. In series [2], the “agonist-elicited calcium signalling in lysosphingolipid-loaded neurons” value is on record as “no calcium signalling measurably over controls”.
For the compound `CCCCCCCCCCCCC/C=C/[C@@H](O)[C@@H](N)CO[C@@H]1O[C@H](CO)[C@H](O)[C@H](O)[C@H]1O` [psychosine, lysocerebroside], in the series on astrocytes, the “InsP3 production in astrocytes” value is given as “inhibited”. Moreover, the “inhibitory effect on InsP3 enhancement caused by sphingosine or metabotropic glutamate receptor agonists” value in series [1] was “blocked this enhancement”. The “neuronal loss (CA1 pyramidal neurons, hippocampus) caused by quisqualate” value in the series on hippocampal neurons (pretreatment with psychosine 125 nmoles, quisqualate 225 nmoles ICV, 7 days) is “prevents the neuronal loss caused by quisqualate”. The “agonist-elicited calcium signalling in lysosphingolipid-loaded neurons” value in series [2] is on record as “no calcium signalling measurably over controls”.
